Source: patent US20240082342A1, “PEPTIDE THERAPEUTICS FOR INCREASING LUNG CELL VIABILITY” (BOARD OF REGENTS, THE UNIVERSITY OF TEXAS SYSTEM, priority 2018, published 2024)
“Also recorded” adds a separate entry of the source.

How the values were obtained:
[1] = test system: A2ECs treated with CSE; experiment: A2ECs exposed to cigarette smoke extract (CSE) in vitro; assay type: cell-based; settings: primary A2ECs + CSE
Procedure: A2ECs were treated with PBS, CSP or its fragment, CSP7 or control peptide (CP), 2 h after exposure of cells to CSE. A2EC lysates were immunoblotted for acetylated/total p53 and active/total caspase-3 24 h after CSE exposure. β-actin levels were evaluated to assess equal loading.
To further confirm CSP7 mimics CSP effect, primary A2ECs were treated with cigarette smoke extract (CSE) prepared in PBS in the presence of CSP or CSP7. The A2ECs treated with CSE and CP or PBS alone were used as controls. The A2EC lysates were tested for acetylated and total p53, apoptosis and Sirt1 expression. CSE induced total and acetylated p53 while inhibiting Sirt1 expression in A2ECs indicating inhibition of Sirt1-mediated deacetylation of p53 contributes to induction of acetylated and total p53 and A2EC apoptosis.

[2] = test system: WT mice with CS-LI; experiment: Chronic CS/TSE lung injury in WT mice treated by nebulization or IP injection; assay type: in vivo, mouse; settings: for lung volume (μCT): 20 weeks CS
Procedure: Pulmonary function tests were performed immediately before CT imaging and before mice were killed, as previously described (DeCologne N et al., Eur Respir J. 35:176-85, 2010). Briefly, mice were anesthetized with a ketamine/xylazine mixture. Anesthetized mice were intubated by inserting a sterile, 20-gauge intravenous cannula through the vocal cords into the trachea. Elastance, compliance, and total lung resistance were then measured (SCIREQ, Tempe, AZ). The “snapshot perturbation method” was used to study lung function in the CBB injury model. This method measures total lung resistance, compliance, and elastance of the entire respiratory system. Increased total lung resistance in the CBB model may reflect lung contraction associated with pleural rind formation with concurrent distortion of the airways. The flexiVent was set to a tidal volume of […] at a frequency of 150 breaths/min against 2-3 cm H2O positive end-expiratory pressure, according to manufacturer's specifications. The mice were maintained under anesthesia using isofluorane throughout the pulmonary function testing.
After ketamine/xylazine injection, mice were anesthetized further using an isoflurane/02 mixture to ensure that mice remained deeply anesthetized and to minimize spontaneous breaths. The Explore Locus Micro-CT Scanner (General Electric, GE Healthcare, Wauwatosa, WI) was used for CT imaging. CT scans were performed during full inspiration and at a resolution of […]. Lung volumes were calculated from lung renditions collected at full inspiration. Microview software was used to analyze lung volumes and render three-dimensional images (Tucker T A et al., Am J Respir Cell Mol Biol. 50:316-27, 2014).
Wild type (WT) mice of the C57BL/6J strain (n=10/group) were kept in ambient air or were TSE for 4 hour/day, 5 days a week as described. […]
Micro-computed Tomography (pCT) scanning and measurements of lung volume and pulmonary function. […] Lung volumes were calculated from lung renditions collected at full inspiration using Microview software. […]

[3] = test system: AECs from human nL exposed to CSE; experiment: Normal lung AECs exposed to TS/CS extract in vitro for 48 h; assay type: cell-based
Procedure: Primary Airway Epithelial Cells (AECs); Normal, Human (ATCC® PCS-301-010™) and Primary Airway Epithelial Cells; COPD (ATCC® PCS-301-013™) were obtained from the ATCC and cultured in Airway Cell Basal Medium with glutamine, Extract P, HLL Supplement, and AEC Supplement. containing and 1% penicillin-streptomycin. The cells were maintained at 37° C. in a humidified atmosphere at 5% CO2. All media, supplements, and antibiotics were purchased from ATCC.
Research cigarettes 2R4F were purchased from the Tobacco Health Research University of Kentucky (Lexington, KY). TSE extracts were prepared by burning research cigarettes in a side arm flask and the smoke generated was bubbled into phosphate-buffered saline at room temperature through an attached peristaltic pump as described earlier (Bhandary et al PloS One 10: e0123187, 2015) Tiwari et al. Am J Physiol Lung Cell Mol Physiol. 310:L496-506, 2016. An absorbance of 1.0 at 230 nm is considered 100%. TSE extract was filter sterilized by passing it through a 0.2-μm filter.
Preparation of CSE for the treatment of AECs in vitro. Research cigarettes 2R4F were purchased from the Tobacco Health Research, University of Kentucky (Lexington, KY). CSE were prepared by burning research cigarettes in a sidearm flask and the smoke generated was bubbled into phosphate-buffered saline (PBS) at room temperature through an attached peristaltic pump as described earlier (Shetty et al, 2012). An absorbance of 1.0 at 230 nm is considered 100%. CSE was filter sterilized by passing it through a 0.2-μm filter.
CSP7 inhibits MH and cilia dysfunction in AECs exposed to CS extract (CSE). To further confirm the above findings, AECs isolated from human nL were exposed to CSE in vitro for 48 h and analyzed for MUC5AC, HDAC6, FOXA2, FOXA3, SPDEF, acetylated alpha-tubulin, p53, PAI-1 and LC3. […] The changes at protein level allied with corresponding changes at the mRNA levels (FIG. 36B). […] CSE induced co-localization of MUC5AC and HDAC6, and acetylated alpha-tubulin and LC3 were inhibited following treatment with CSP7.

Substance	CSE-induced apoptosis [1]	lung volume (μCT) [2]	lung volume, compliance, elastance and resistance ([2]; IP or Neb, 20 weeks TSE/CS)	acetylated alpha-tubulin (immunofluorescence) ([3]; AECs + CSE)	TS-induced MUC5A gene expression ([3]; bronchial epithelial cells)	Caveolin1 expression ([3]; nL AECs + TSE)	MUC5AC, HDAC6, FOXA3, SPDEF and FOXA2 mRNA (qPCR) ([3]; nL AECs + TSE)	autophagy protein markers (Western blot) ([3]; nL AECs + TSE)	cilia length and number of ciliated cells ([3]; nL AECs + TSE/CSE)	co-localization of MUC5AC/HDAC6 and Ac-Tubulin/LC3 ([3]; nL AECs + TSE/CSE)	MUC5AC, HDAC6, FOXA3, SPDEF, CAV1, p53, PAI-1, LC3, FOXA2, Ac-Tub proteins (Western blot) ([3]; nL AECs + TSE/CSE 48 h)
DGIWKASFTTFTVTKYWFYR (listed as Homo sapiens) [CSP, 20 residue caveolin-1 scaffolding domain peptide]	inhibited CSE-induced apoptosis										
FTTFTVT (listed as Homo sapiens) [CSP7, heptapeptide fragment of the caveolin-1 scaffolding domain peptide CSP]	inhibited CSE-induced apoptosis	significantly improved	reduced lung volume, compliance, elastance and resistance; also recorded: trend of reversal; also recorded: significantly improved	improved; also recorded: reversed with CSP7 treatment	inhibited TS-induced MUC5A gene expression	reversed by CSP7	reversed by CSP7 treatment	reversed by CSP7	significantly improved; also recorded: significantly reversed	reversal of the co-localization; also recorded: inhibited	reversed with CSP7 treatment
WGIDKAFFTTSTVTYKWFRY [CP, scrambled control peptide with the same amino acid composition as CSP, reference compound]		persistently high lung volumes							failed to respond		
